Measured values taken from US20180311204A1, “METHOD FOR PREVENTING OR TREATING HEART FAILURE” (GUANGZHOU MEDICAL UNIVERSITY, priority 2017, published 2018).

Experiments:
H9C2 cells = experiment: Apoptosis detection by Annexin V/PI staining in cardiomyocytes subjected to oxygen-glucose deprivation (OGD); format: cell-based; settings: H9C2 cells with OGD treatment, 5, 10, 20, 40, 80 μM nobiletin, dose-dependent manner, versus OGD control
Protocol: In vitro, H9C2 cells with OGD treatment were used to model myocardial ischemia. OGD treatment: the cells were cultured and subjected to OGD when the density of the cells reached to 80%-90%. Collected the OGD-treated cells from the medium and rinsed trice with glucose-free EBSS, after that cultured the cells in the same medium at 37° C. in an anoxia chamber saturated with 94% N2/5% CO2/1% O2 for a preset time.
After previous procedures, the cells were digested with 0.25% trypsin and collected to stain with both fluorescein isothiocyanate (FITC) labeled […] (Annexin V-FITC) and PI (according to the manufacturer's protocol of Annexin V-FITC kits). Flow cytometry detection was carried out immediately under an excitation wavelength of […] to detect 1×10^4 cells. PI emits light of a wavelength about 623 nm (red fluorescence) while FITC emits light of about 520 nm (green fluorescence). Analyzed the detection data by CELLQEST Software and the results were shown in scatter plots (see FIG. 9A-9F) and statistics (see FIG. 10).

[1] = system: Myocardial Ischemia Rat Model; experiment: Determination of infarct size by TTC staining; format: in vivo; settings: compared to the infarction group
Protocol: 60 rats were randomized into 6 groups: (i) sham group (Sham), n=10, (left anterior descending (LAD) coronary arteries of the rats were only laid upon sutures without ligation, and 0.5% Tween normal saline was injected intraperitoneally); (ii) infarction group (AMI), n=10, (LAD coronary arteries of the rats were ligated before 0.5% Tween normal saline was injected intraperitoneally); (iii) nobiletin group of low dosage (AMI+NOB-L, n=10; LAD coronary arteries of the rats were ligated before 7.5 mg/kg nobiletin was injected intraperitoneally); (v) nobiletin group of medium dosage (AMI+NOB-M), n=10, (LAD coronary arteries of the rats were ligated before 15 mg/kg nobiletin was injected intraperitoneally); (vi) nobiletin group of high dosage (AMI+NOB-H), n=10, (LAD coronary arteries of the rats were ligated before 30 mg/kg nobiletin was injected intraperitoneally); (vii) enalapril group (AMI+Enalapril), n=10, (LAD coronary arteries of the rats were ligated before 10 mg/kg enalapril was given intragastrically); echocardiograms were taken after the 21-day experiment. Male SD rats were weighed and then anaesthetized by intraperitoneal injections of 10% chloral hydrate (300 mg/kg). The rats were fixed on a table lying on their back, each connected with an electrocardiography and 2-lead electrocardiograms (ECGs) were recorded. The rats were inserted with trachea cannulas and artificially ventilated with a ventilator (positive airway pressure, frequency: 70 times/min, Ti/(I:E)=5:4, VT: about 15 ml/kg). Sterilized the left parasternal skin on the third and forth intercostals regions, cut the skin and separated muscle layers trough blunt dissection, opened the thorax, then cut the pericardium to expose the left ventricle and the left auricle, the left ventricle coronary artery was seen descending from the middle of the left auricle to the anterior wall of the left ventricle (see FIG. 1). Using left coronary artery as a reference, between left auricle and pulmonary conus arteriosus, the left anterior descending (LAD) coronary arteries of the rats were ligated by NO. 6-0 sutures. ST segments rose in 2-lead electrocardiogram of the rat after LAD ligation (see FIG. 2), and myocardial ischemia symptoms such as the distal myocardial tissues turned pale after LAD ligation acted as an index of whether the ligation worked (see FIG. 3). Sham-treated rats underwent the same surgical procedure without the ligation of LAD coronary artery. […] When myocardial infarction occurs for some time, dehydrogenases in the cells were released and lost due to cell membrane damages. Because TTC is not deoxidized into a colored form, infarcted myocardium cannot be stained. […] (2) […]: Removed atriums and right ventricles, restored left ventricles were weighed and recorded. […] Weighed and recorded each slices. […]

[2] = system: Myocardial Ischemia Rat Model; experiment: Echocardiography in myocardial ischemia rat model (LAD ligation), effect of nobiletin on ventricle; format: in vivo; settings: 21-day experiment, compared to the infarction group
[3] = nobiletin groups (7.5, 15, 30 mg/kg intraperitoneally)
[4] = AMI+NOB-H, 30 mg/kg intraperitoneally
[5] = AMI+NOB-M, 15 mg/kg intraperitoneally
[6] = enalapril group, 10 mg/kg intragastrically
[7] = AMI+Enalapril, 10 mg/kg intragastrically

Compound | apoptosis resulting from OGD (H9C2 cells) | infarct area percentages (FIG. 8) [1, 3] | white infarct areas in TTC-stained myocardium (FIG. 7) [1, 3] | left ventricular ejection fraction (LVEF) [2, 4] | left ventricular fractional shortening (LVFS) [2, 4] | rise of left ventricular internal dimension, diastolic (LVIDD) [2, 4] | rise of left ventricular internal dimension, systolic (LVIDS) [2, 4] | left ventricular ejection fraction (LVEF) [2, 5] | left ventricular fractional shortening (LVFS) [2, 5] | rise of left ventricular internal dimension, diastolic (LVIDD) [2, 5] | rise of left ventricular internal dimension, systolic (LVIDS) [2, 5] | infarct area percentages (FIG. 8) [1, 6] | white infarct areas in TTC-stained myocardium (FIG. 7) [1, 6] | left ventricular ejection fraction (LVEF) [2, 7] | left ventricular fractional shortening (LVFS) [2, 7] | rise of left ventricular internal dimension, diastolic (LVIDD) [2, 7] | rise of left ventricular internal dimension, systolic (LVIDS) [2, 7]
COc1ccc(-c2cc(=O)c3c(OC)c(OC)c(OC)c(OC)c3o2)cc1OC [nobiletin] | significantly reduced | lower | smaller | significantly increased | significantly increased | no significant reduction | significantly reduced | significantly increased | significantly increased | no significant reduction | significantly reduced |  |  |  |  |  | 
CCOC(=O)[C@H](CCc1ccccc1)N[C@@H](C)C(=O)N1CCC[C@H]1C(=O)O [enalapril, reference compound] |  |  |  |  |  |  |  |  |  |  |  | lower | smaller | significantly increased | significantly increased | no significant reduction | significantly reduced
